From US4200635A, “Antibacterially active amides” (Beecham Group Limited, priority 1977, dated 1980)
Converted amounts (≈) assume the structure as drawn. Read-outs that look alike come from different tables or passages of the source.

What was measured:
[1] = tested on: Pasteurella multocida 1633; assay: MIC, serial dilution in nutrient agar, human bacteria; assay type: cell-based; details: nutrient agar containing 5% chocolated horse blood
[2] = tested on: Haemophilus influenzae Q1; assay: as above; assay type: cell-based; details: nutrient agar containing 5% chocolated horse blood
[3] = tested on: Haemophilus influenzae Wy21; assay: as above; assay type: cell-based; details: Haemophilus influenzae, WY21
[4] = tested on: Neisseria catarrhalis 1502; assay: as above; assay type: cell-based
[5] = tested on: Bacillus subtilis 6633; assay: as above; assay type: cell-based
[6] = tested on: Staph. aureus Oxford; assay: as above; assay type: cell-based; details: Staphylococcus aureus
[7] = tested on: Staph. aureus Russell; assay: as above; assay type: cell-based; details: Staphylococcus aureus
[8] = tested on: Bord. bronchiseptica BO9; assay: MIC, veterinary bacteria; assay type: cell-based; details: Bordetella bronchiseptica
[9] = tested on: Past. multocida PAI; assay: MIC, veterinary bacteria; assay type: cell-based; details: Pasteurella multocida
[10] = tested on: Past. haemolytica PA5; assay: MIC, veterinary bacteria; assay type: cell-based; details: Mannheimia haemolytica
[11] = tested on: Staph. aureus B4; assay: MIC, veterinary bacteria; assay type: cell-based; details: Staphylococcus aureus
[12] = tested on: Staph. aureus 152; assay: MIC, veterinary bacteria; assay type: cell-based; details: Staphylococcus aureus
[13] = tested on: Strep. uberis SPU 1; assay: MIC, veterinary bacteria; assay type: cell-based; details: Streptococcus uberis, SPU1
[14] = tested on: Strep. dysgalactiae SPD 1; assay: MIC, veterinary bacteria; assay type: cell-based; details: Streptococcus dysgalactiae, SPD1
[15] = tested on: M. suipneumoniae Str. 11; assay: in vitro MIC, anti-mycoplasmal activity; assay type: cell-based; details: Mesomycoplasma hyopneumoniae, Friis' broth, microtiter method
[16] = tested on: M. dispar NCTC 10125; assay: in vitro MIC, anti-mycoplasmal activity; assay type: cell-based; details: Friis' broth, microtiter method
Source text: (§1) Tables 3 and 4 show the in vitro MIC values (μg/ml) of the compounds of Examples 1 to 9 against a number of mycoplasma organisms, determined in Friis' broth using the microtiter method.

[17] = tested on: M. fermentans MWKL4; assay: in vitro MIC, anti-mycoplasmal activity; assay type: cell-based; details: Mycoplasmopsis fermentans, Friis' broth, microtiter method
Source text: as §1

[18] = tested on: M. pneumoniae ATCC 15492; assay: in vitro MIC, anti-mycoplasmal activity; assay type: cell-based; details: Mycoplasmoides pneumoniae, ATCC15492, Friis' broth, microtiter method
Source text: as §1

[19] = tested on: M. pulmonis JB; assay: in vitro MIC, anti-mycoplasmal activity; assay type: cell-based; details: Mycoplasmopsis pulmonis, Friis' broth, microtiter method
Source text: as §1

[20] = tested on: M. suipneumoniae J2206/183b; assay: in vitro MIC, anti-mycoplasmal activity; assay type: cell-based; details: Mesomycoplasma hyopneumoniae, Friis' broth, microtiter method
Source text: as §1

[21] = tested on: M. pneumoniae 427a; assay: in vitro MIC, anti-mycoplasmal activity; assay type: cell-based; details: Mycoplasmoides pneumoniae, Friis' broth, microtiter method
[22] = tested on: Strep. pneumoniae CN33; assay: MIC, serial dilution in nutrient agar, human bacteria; assay type: cell-based; details: Streptococcus pneumoniae
[23] = tested on: M. dispar H225; assay: in vitro MIC, anti-mycoplasmal activity; assay type: cell-based; details: M. dispar H225; Friis' broth, microtiter method; read-out: M.I.C.
Source text: as §1

[24] = Mouse blood levels; assay type: in vivo, male albino mice, CS1 strain; details: blood, sc, 50 mg/kg subcutaneous
Experimental: The blood levels of the 5-ethoxycarbonylpentyl amide of monic acid A were measured after subcutaneous dosing to male albino mice.
Species: Albino male mice 18-22 g CS1 strain.
Routes: Subcutaneous and oral.
Dose: 50 mg/kg. This compound was supplied as an oil. It was administered as a solution in 10% DMF v/v in PBS or water.
Assay: Neisseria catarrhalis, immediate assay of samples.

[25] = Staph. aureus Russell, nutrient agar containing 5% chocolated horse blood, read-out: M.I.C.
[26] = Bord. bronchiseptica BO9, read-out: M.I.C.
[27] = Past. multocida PAI, read-out: M.I.C.
[28] = Past. haemolytica PA5, read-out: M.I.C.
[29] = Staph. aureus B4, read-out: M.I.C.
[30] = Strep. uberis SPU 1, read-out: M.I.C.
[31] = Strep. dysgalactiae SPD 1, read-out: M.I.C.
[32] = Neisseria catarrhalis 1502, nutrient agar containing 5% chocolated horse blood, read-out: M.I.C.
[33] = Bacillus subtilis 6633, nutrient agar containing 5% chocolated horse blood, read-out: M.I.C.

Compound	MIC [1]	MIC [2]	MIC [6]	MIC [7, 25]	MIC [8, 26]	MIC [9, 27]	MIC [10, 28]	MIC [11, 29]	MIC [12]	MIC [13, 30]	MIC [14, 31]	MIC [15]	MIC [16]	MIC [17]	MIC [19]	MIC [20]	MIC [21]	MIC [4, 32]	MIC [5, 33]	MIC [23]	also measured
COC(=O)CCCCCCCCNC(=O)C=C(C)CC1OCC(CC2OC2C(C)C(C)O)C(O)C1O (stereo not drawn) [Example 7, 8-Methoxycarbonyloctylamide of monic acid A]	1 µg/mL (≈ 1.95 µM)	0.5 µg/mL (≈ 0.973 µM)	10 µg/mL (≈ 19.5 µM)	25 µg/mL (≈ 48.7 µM)	2 µg/mL (≈ 3.89 µM)	1 µg/mL (≈ 1.95 µM)	8 µg/mL (≈ 15.6 µM)	4 µg/mL (≈ 7.79 µM)	8 µg/mL (≈ 15.6 µM)	0.125 µg/mL (≈ 0.243 µM)	0.0625 µg/mL (≈ 0.122 µM)	1.25 µg/mL (≈ 2.43 µM)	0.156 µg/mL (≈ 0.304 µM)	< 0.02 µg/mL	< 0.02 µg/mL	10 µg/mL (≈ 19.5 µM)	10 µg/mL (≈ 19.5 µM)				MIC [3]: 0.5 µg/mL (≈ 0.973 µM); MIC ([4]; Neisseria, 1502): 0.1 µg/mL (≈ 0.195 µM); MIC ([5]; Bacillus subtilis, 6633): 2.5 µg/mL (≈ 4.87 µM); MIC [18]: 10 µg/mL (≈ 19.5 µM)
C=CCNC(=O)C=C(C)CC1OCC(CC2OC2C(C)C(C)O)C(O)C1O (stereo not drawn) [Example 8, Allylamide of monic acid A]	0.05 µg/mL (≈ 0.13 µM)	> 100 µg/mL		100 µg/mL (≈ 261 µM)	1.25 µg/mL (≈ 3.26 µM)	1.25 µg/mL (≈ 3.26 µM)	0.625 µg/mL (≈ 1.63 µM)	5 µg/mL (≈ 13 µM)	20 µg/mL (≈ 52.2 µM)	0.625 µg/mL (≈ 1.63 µM)	0.156 µg/mL (≈ 0.407 µM)	0.625 µg/mL (≈ 1.63 µM)	0.078 µg/mL (≈ 0.203 µM)	0.039 µg/mL (≈ 0.102 µM)	0.039 µg/mL (≈ 0.102 µM)	1.25 µg/mL (≈ 3.26 µM)	10 µg/mL (≈ 26.1 µM)	100 µg/mL (≈ 261 µM)	2.5 µg/mL (≈ 6.52 µM)	0.078 µg/mL (≈ 0.203 µM)	MIC ([6]; Staph. aureus Oxford, nutrient agar containing 5% chocolated horse blood, read-out: M.I.C.): 2.5 µg/mL (≈ 6.52 µM); MIC ([22]; Strep. pneumoniae CN33, nutrient agar containing 5% chocolated horse blood, read-out: M.I.C.): 5 µg/mL (≈ 13 µM)
COC(=O)CCCCCNC(=O)C=C(C)CC1OCC(CC2OC2C(C)C(C)O)C(O)C1O (stereo not drawn) [Example 9, 5-Methoxycarbonylpentylamide of monic acid A]	0.2 µg/mL (≈ 0.424 µM)	0.2 µg/mL (≈ 0.424 µM)	25 µg/mL (≈ 53 µM)			10 µg/mL (≈ 21.2 µM)	10 µg/mL (≈ 21.2 µM)	20 µg/mL (≈ 42.4 µM)	20 µg/mL (≈ 42.4 µM)			0.625 µg/mL (≈ 1.33 µM)	0.312 µg/mL (≈ 0.662 µM)	0.039 µg/mL (≈ 0.0827 µM)	0.039 µg/mL (≈ 0.0827 µM)	1.25 µg/mL (≈ 2.65 µM)	5 µg/mL (≈ 10.6 µM)	< 0.02 µg/mL	10 µg/mL (≈ 21.2 µM)	0.312 µg/mL (≈ 0.662 µM)	MIC [7]: 100 µg/mL (≈ 212 µM); MIC ([22]; CN33): 2.5 µg/mL (≈ 5.3 µM); MIC ([8]; BO9): 10 µg/mL (≈ 21.2 µM); MIC [13]: 0.625 µg/mL (≈ 1.33 µM); MIC [14]: 0.312 µg/mL (≈ 0.662 µM)
COC(=O)CCNC(=O)C=C(C)CC1OCC(CC2OC2C(C)C(C)O)C(O)C1O (stereo not drawn) [Example 10, 2-Methoxycarbonylethylamide of monic acid A]											20 µg/mL (≈ 46.6 µM)										MIC ([8]; BO9): 20 µg/mL (≈ 46.6 µM); MIC [9]: 0.625 µg/mL (≈ 1.46 µM); MIC ([10]; PA5): 5 µg/mL (≈ 11.6 µM); MIC ([11]; B4): 80 µg/mL (≈ 186 µM); MIC [13]: 2.5 µg/mL (≈ 5.82 µM)
C/C(=C\C(=O)OCCCCCCCCC(=O)O)C[C@@H]1OC[C@H](C[C@@H]2O[C@H]2[C@@H](C)[C@H](C)O)[C@@H](O)[C@H]1O [Pseudomonic Acid, reference compound]																					concentration at 5 min ([24]; 5 minutes after dosing, mean of 5 experiments, assay Neisseria catarrhalis, read-out: Concentration (blood level)): 8200 ng/mL; concentration at 10 min ([24]; 10 minutes after dosing, mean of 5 experiments, assay Neisseria catarrhalis, read-out: Concentration (blood level)): 3700 ng/mL; concentration at 20 min ([24]; 20 minutes after dosing, mean of 5 experiments, assay Neisseria catarrhalis, read-out: Concentration (blood level)): 1100 ng/mL; concentration at 0.5 h ([24]; 30 minutes after dosing, mean of 5 experiments, assay Neisseria catarrhalis, read-out: Concentration (blood level)): 620 ng/mL; concentration at 1 h ([24]; 60 minutes after dosing, mean of 5 experiments, assay Neisseria catarrhalis, read-out: Concentration (blood level)): < 500 ng/mL; half-life [24]: 5 min
